# Results reported in US9464106B2, “Oligonucleotides useful for detecting and analyzing nucleic acids of interest” (Exiqon A/S, priority 2002, dated 2016).
# l = locked nucleic acid (LNA); [5mC] = 5-methylcytosine; d = 2'-deoxy (DNA)
# System: yeast HSP78 (YDR258C) sequence
# Assay: Duplex melting temperatures of HSP78 25-mer capture probes (UV spectrophotometer)
# Conditions: 25-mer capture probe duplex with complementary target; design PM = perfectly matched, MM = single mismatch; DNA, LNA_T (T) or LNA_TC (TC) substituted
row,Substance,Average duplex melting temp. [°C]
1,"12731 (DNA TTGGAAACATCGCGGTGCGCTTTTT; sugars from the 5' end lldddddlddlddddldldddldld, [5mC] at 8, 11, 18, backbone not given here) [compound 12731]",72
2,"12732 (DNA GAAACATCGGGGAGCGCTTTTTCAA; sugars from the 5' end ddddldllddddddldddddldldd, [5mC] at 5, 8, 15, 23, backbone not given here) [compound 12732]",74.8
3,"12733 (DNA GACAGCCTCAGTAAATTGGCCACCA; sugars from the 5' end ddlddldldddddddlldddlddld, [5mC] at 3, 6, 21, 24, backbone not given here) [compound 12733]",77.4
4,"12734 (DNA CCGATTAAACGACAGACAGTATGCT; sugars from the 5' end llddlldddlddddddlddldldld, [5mC] at 1, 2, 10, 17, 24, backbone not given here) [compound 12734]",70.2
5,"12735 (DNA ATCAAATAGGAAATCAGCTAAAGCC; sugars from the 5' end dlldddldddddddlddllddddld, [5mC] at 3, 15, 18, 24, backbone not given here) [compound 12735]",64.6
6,"12736 (DNA GACCTAAGAACAAAAAGCTGGCAAT; sugars from the 5' end ddllldddddlddddddllddlddd, all C 5-methyl, backbone not given here) [compound 12736]",71.4
7,"12737 (DNA AAATAGCAGCAAAGGCCTCGTCTTG; sugars from the 5' end dddlddlddldddddldlldlddld, [5mC] at 7, 10, 16, 19, backbone not given here) [compound 12737]",79.3
8,"12738 (DNA ATAGCAGCAATGCCCTCGTCTTGGC; sugars from the 5' end dlddldddddlddddldddldlddd, [5mC] at 5, 20, backbone not given here) [compound 12738]",71.5
9,"12739 (DNA GCAATGGCCTCGACTTGGCCAACGA; sugars from the 5' end d10 l1 d2 l1 d11, [5mC] at 11, 14, backbone not given here) [compound 12739]",73.1
10,"12740 (DNA GATGAACTCAGGAGGATAGGATCTT; sugars from the 5' end ddldddllldddddddlddddllld, all C 5-methyl, backbone not given here) [compound 12740]",70.4
11,"12741 (DNA TCAGTTAGCCAAACCTTCGCTTCAT; sugars from the 5' end dlddlddddlddddddlddlddldd, [5mC] at 2, 10, 20, 23, backbone not given here) [compound 12741]",70.6
12,"12742 (DNA GTTGCCATGGAGATCAAAATCTGTC; sugars from the 5' end dlddlldlddddddlddddllddld, [5mC] at 5, 6, 15, 21, backbone not given here) [compound 12742]",61.6
13,"12743 (DNA AGACGTACAGCAACAGAAATAGCAG; sugars from the 5' end dddldldlddlddddddddlddldd, [5mC] at 4, 8, 11, 23, backbone not given here) [compound 12743]",73.6
14,"12744 (DNA TTTGGTAGCACGTCAAGCTTAGTAT; sugars from the 5' end ldlddlddldlddddddldlddldd, [5mC] at 9, 11, 18, backbone not given here) [compound 12744]",73.3
15,"12745 (DNA ATAAAGCTGGCATTAGGTCTCTTTT; sugars from the 5' end dlddddllddlddddddllldllld, [5mC] at 7, 11, 19, backbone not given here) [compound 12745]",74
